Molecules are shown by their SMILES. A value given as a limit tells only on which side of the number the result lay.

For this assay, the target named is T1, PknB (Mycobacterium tuberculosis, UniProt P9WI81).
T1 construct: made in house
The assay can be described thus: biochemical. Also noted: species or system M. tuberculosis. As to conditions: 3 nM PknB, 6 uM GarA, 3 μM ATP, 30 min, competitive tight-binding fit, several symbols in a cell = repeat determinations; for Ki: read-out: Ki Values.

T1 sequence (P9WI81 whole entry): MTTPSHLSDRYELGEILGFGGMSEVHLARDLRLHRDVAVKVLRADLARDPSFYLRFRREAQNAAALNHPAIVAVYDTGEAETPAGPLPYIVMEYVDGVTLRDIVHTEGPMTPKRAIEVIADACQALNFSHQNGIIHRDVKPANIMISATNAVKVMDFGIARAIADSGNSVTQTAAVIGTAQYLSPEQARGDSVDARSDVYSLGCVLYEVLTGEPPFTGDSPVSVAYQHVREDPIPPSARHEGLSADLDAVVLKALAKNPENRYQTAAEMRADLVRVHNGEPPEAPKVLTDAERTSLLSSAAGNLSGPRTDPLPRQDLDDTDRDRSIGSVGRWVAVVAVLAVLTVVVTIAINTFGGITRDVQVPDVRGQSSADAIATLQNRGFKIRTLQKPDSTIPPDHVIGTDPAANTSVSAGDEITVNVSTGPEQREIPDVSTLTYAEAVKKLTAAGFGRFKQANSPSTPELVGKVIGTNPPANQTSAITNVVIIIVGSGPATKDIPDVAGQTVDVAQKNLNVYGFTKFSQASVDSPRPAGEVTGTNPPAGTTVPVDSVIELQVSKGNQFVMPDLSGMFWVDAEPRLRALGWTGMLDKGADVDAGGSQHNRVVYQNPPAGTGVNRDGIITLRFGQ

`CC(C)(C)NS(=O)(=O)c1ccc(-c2cccc(Nc3cc(C4CC4)[nH]n3)n2)s1` [Compound 271, 5-[6-[(5-cyclopropyl-1H-pyrazol-3-yl)amino]-2-pyridyl]-N-tert-butyl-thiophene-2-sulfonamide]: the Ki fell in the range of 0.01 to 0.05 µM.
For `NS(=O)(=O)c1ccc(-c2cccc(Nc3cc(C4CC4)[nH]n3)n2)s1` [Compound 272, 5-[6-[(5-cyclopropyl-1H-pyrazol-3-yl)amino]-2-pyridyl]thiophene-2-sulfonamide], the Ki was 0.001 to 0.01 µM.
Take `CC(C)(C)NS(=O)(=O)c1ccc(-c2ccc([N+](=O)[O-])c(Nc3cc(C4CC4)n[nH]3)n2)s1` [Compound 274, 5-[6-[(5-cyclopropyl-2H-pyrazol-3-yl)amino]-5-nitro-2-pyridyl]-N-tert-butyl-thiophene-2-sulfonamide]: the inhibitory constant (Ki) lay within 0.05 to 0.1 µM.
For `Nc1ccc(-c2ccc(S(N)(=O)=O)s2)nc1Nc1cc(C2CC2)n[nH]1` [Compound 276, 5-[5-amino-6-[(5-cyclopropyl-2H-pyrazol-3-yl)amino]-2-pyridyl]thiophene-2-sulfonamide], the Ki fell in the range of 0.001 to 0.01 µM.
Consider `O=C1/C=C\c2c(n[nH]c2C2CC2)Nc2nc(ncc2Cl)-c2ccccc21` [Compound 277, chloro-cyclopropyl-BLAHone], for which the Ki was more than 4 µM.
For `CC(C)(C)NS(=O)(=O)c1ccc(-c2nc(Nc3cc(C4CC4)[nH]n3)cc(C(=O)O)n2)s1` [Compound 278, 6-[(5-cyclopropyl-1H-pyrazol-3-yl)amino]-2-[5-(tert-butylsulfamoyl)-2-thienyl]-pyrimidine-4-carboxylic acid], the Ki fell in the range of 0.1 to 0.5 µM.
As to `CS(=O)(=O)NCc1ccc(-c2ncc(Cl)c(Nc3cc(C4CC4)n[nH]3)n2)s1` [Compound 280, N-[[5-[5-chloro-4-[(5-cyclopropyl-2H-pyrazol-3-yl)amino]-pyrimidin-2-yl]-2-thienyl]methyl]methanesulfonamide], the Ki was 0.01 to 0.05 µM.
Turning to `NS(=O)(=O)c1ccc(-c2ncc(/C=C/CO)c(Nc3cc(C4CC4)[nH]n3)n2)s1` [Compound 281, (E)-5-(4-(5-cyclopropyl-1H-pyrazol-3-ylamino)-5-(3-hydroxyprop-1-enyl)pyrimidin-2-yl)thiophene-2-sulfonamide], the Ki is 0.001 to 0.01 µM.
With `CN(C)c1cc(Nc2cc(C3CC3)n[nH]2)nc(-c2ccc(S(N)(=O)=O)s2)n1` [Compound 282, 5-[4-[(5-cyclopropyl-2H-pyrazol-3-yl)amino]-6-dimethylamino-pyrimidin-2-yl]thiophene-2-sulfonamide], the Ki lay in the range of 2 to 4 µM.
Regarding `NS(=O)(=O)c1ccc(-c2nc(Nc3cc(C4CC4)[nH]n3)cc(C(=O)O)n2)s1` [Compound 283, 6-[(5-cyclopropyl-1H-pyrazol-3-yl)amino]-2-(5-sulfamoyl-2-thienyl)-pyrimidine-4-carboxylic acid], the Ki lay within 0.1 to 0.5 µM.
Turning to `NS(=O)(=O)c1ccc(-c2nc(CO)cc(Nc3cc(C4CC4)[nH]n3)n2)s1` [Compound 285, 5-[4-[(5-cyclopropyl-1H-pyrazol-3-yl)amino]-6-(hydroxymethyl)pyrimidin-2-yl]thiophene-2-sulfonamide], the Ki lay in the range of 0.001 to 0.01 µM.
Still for that read-out and setting: then `CC(C)(C)NS(=O)(=O)c1ccc(-c2nc(CO)cc(Nc3cc(C4CC4)[nH]n3)n2)s1` [Compound 286, 5-[4-[(5-cyclopropyl-1H-pyrazol-3-yl)amino]-6-(hydroxymethyl)pyrimidin-2-yl]-N-tert-butyl-thiophene-2-sulfonamide], with 0.01 to 0.05 µM; and `CC(=O)c1ccc(-c2ncc(Cl)c(Nc3cc(C4CC4)[nH]n3)n2)o1` [Compound 288, 1-[5-[5-chloro-4-[(5-cyclopropyl-1H-pyrazol-3-yl)amino]-pyrimidin-2-yl]-2-furyl]ethanone], with 0.1 to 0.5 µM.
With `CC(O)c1ccc(-c2ncc(Cl)c(Nc3cc(C4CC4)[nH]n3)n2)o1` (centres unmarked) [Compound 289, 1-[5-[5-chloro-4-[(5-cyclopropyl-1H-pyrazol-3-yl)amino]-pyrimidin-2-yl]-2-furyl]ethanol], the Ki was 0.1 to 0.5 µM.
Regarding `CSc1cc(Nc2cc(C3CC3)n[nH]2)nc(-c2ccc(S(N)(=O)=O)s2)n1` [Compound 291, 5-[4-[(5-cyclopropyl-2H-pyrazol-3-yl)amino]-6-methylsulfanyl-pyrimidin-2-yl]thiophene-2-sulfonamide], the Ki lay in the range of 0.1 to 0.5 µM.
For `NS(=O)(=O)c1ccc(-c2nc(Nc3n[nH]c(C4CC4)c3Cl)cc(C(=O)O)n2)s1` [Compound 292, 6-[(4-chloro-5-cyclopropyl-1H-pyrazol-3-yl)amino]-2-(5-sulfamoyl-2-thienyl)-pyrimidine-4-carboxylic acid], the Ki is more than 4 µM.
As for `N#Cc1cc(Nc2cc(C3CC3)n[nH]2)nc(-c2ccc(S(N)(=O)=O)s2)n1` [Compound 295, 5-[4-cyano-6-[(5-cyclopropyl-2H-pyrazol-3-yl)amino]-pyrimidin-2-yl]thiophene-2-sulfonamide], the “Ki Values” is “A**, B**”.
For `Cc1nc(-c2ncc(Cl)c(Nc3cc(C4CC4)[nH]n3)n2)sc1C(C)O` (centres unmarked) [Compound 296, 1-(2-(5-chloro-4-(5-cyclopropyl-1H-pyrazol-3-ylamino)pyrimidin-2-yl)-4-methylthiazol-5-yl)ethanol], the Ki fell in the range of 0.1 to 0.5 µM.
On the same count and under the same terms, then `CC(=O)c1sc(-c2ncc(Cl)c(Nc3cc(C4CC4)[nH]n3)n2)nc1C` [Compound 297, 1-(2-(5-Chloro-4-(5-cyclopropyl-1H-pyrazol-3-ylamino)pyrimidin-2-yl)-4-methylthiazol-5-yl)ethanone], with 0.01 to 0.05 µM; and `NS(=O)(=O)c1ccc(-c2nc(Nc3cc(C4CC4)n[nH]3)cc(C3CC3)n2)s1` [Compound 298, 5-(4-cyclopropyl-6-(3-cyclopropyl-1H-pyrazol-5-ylamino)pyrimidin-2-yl)thiophene-2-sulfonamide], with 0.05 to 0.1 µM.
With `NS(=O)(=O)c1ccc(-c2ncc(Cl)c(Nc3cc(C4CC4)[nH]n3)n2)cn1` [Compound 299, 5-[5-chloro-4-[(5-cyclopropyl-1H-pyrazol-3-yl)amino]-pyrimidin-2-yl]pyridine-2-sulfonamide], the Ki was in the range of 0.01 to 0.05 µM.
Take `CC(C)(C)NS(=O)(=O)c1ccc(-c2ncc(Cl)c(Nc3cc(C4CC4)[nH]n3)n2)cn1` [Compound 302, 5-[5-chloro-4-[(5-cyclopropyl-1H-pyrazol-3-yl)amino]-pyrimidin-2-yl]-N-tert-butyl-pyridine-2-sulfonamide]: the Ki was 0.01 to 0.05 µM.
Consider `NS(=O)(=O)c1ccc(-c2nc(Nc3cc(C4CC4)n[nH]3)c(Cl)c(C3CC3)n2)s1` [Compound 304, 5-(5-chloro-4-cyclopropyl-6-(3-cyclopropyl-1H-pyrazol-5-ylamino)pyrimidin-2-yl)thiophene-2-sulfonamide], for which the Ki was in the range of 0.001 to 0.01 µM.
Consider `CC(=O)OCCc1cnc(-c2ccc(S(=O)(=O)NC(C)(C)C)s2)nc1Nc1cc(C2CC2)[nH]n1` [Compound 309, 2-[4-[(5-cyclopropyl-1H-pyrazol-3-yl)amino]-2-[5-(tert-butylsulfamoyl)-2-thienyl]-pyrimidin-5-yl]ethyl acetate], for which the inhibitory constant (Ki) lay in the range of 0.1 to 0.5 µM.
With `OC1CCCc2nc(-c3ncc(Cl)c(Nc4cc(C5CC5)[nH]n4)n3)sc21` (centres unmarked) [Compound 310, 2-[5-chloro-4-[(5-cyclopropyl-1H-pyrazol-3-yl)amino]-pyrimidin-2-yl]-4,5,6,7-tetrahydrobenzothiazol-7-ol], the Ki lay in the range of 0.1 to 0.5 µM.
On to `NS(=O)(=O)c1ccc(-c2nc(Nc3cc(C4CC4)n[nH]3)ncc2Cl)s1` [Compound 314, 5-[5-chloro-2-[(5-cyclopropyl-2H-pyrazol-3-yl)amino]-pyrimidin-4-yl]thiophene-2-sulfonamide], for which the Ki is 0.001 to 0.01 µM.
`NS(=O)(=O)c1ccc(-c2ccnc(Nc3cc(C4CC4)n[nH]3)n2)s1` [Compound 315, 5-[2-[(5-cyclopropyl-2H-pyrazol-3-yl)amino]pyrimidin-4-yl]thiophene-2-sulfonamide]: the inhibition constant Ki was in the range of 0.001 to 0.01 µM.
As for `NS(=O)(=O)c1cc(-c2nccc(Nc3cc(C4CC4)[nH]n3)n2)ccc1O` [Compound 318, 5-[4-[(5-cyclopropyl-1H-pyrazol-3-yl)amino]pyrimidin-2-yl]-2-hydroxy-benzenesulfonamide], the Ki was 0.01 to 0.05 µM.
With `NS(=O)(=O)c1ccc(-c2ncc(CCCO)c(Nc3cc(C4CC4)[nH]n3)n2)s1` [Compound 319, 5-[4-[(5-cyclopropyl-1H-pyrazol-3-yl)amino]-5-(3-hydroxypropyl)pyrimidin-2-yl]thiophene-2-sulfonamide], the Ki was 0.001 to 0.01 µM.
As to `CC1CC1c1cc(Nc2nc(-c3ccc(S(=O)(=O)NC(C)(C)C)s3)ncc2Cl)n[nH]1` (centres unmarked) [Compound 321, 5-[5-chloro-4-[[5-(2-methylcyclopropyl)-1H-pyrazol-3-yl]amino]-pyrimidin-2-yl]-N-tert-butyl-thiophene-2-sulfonamide], the Ki was 0.1 to 0.5 µM.
As to `CC(C)(C)OC(=O)Nc1ccc(-c2ncc(Cl)c(Nc3cc(C4CC4)[nH]n3)n2)s1` [Compound 324, tert-butyl [[5-[5-chloro-4-[(5-cyclopropyl-1H-pyrazol-3-yl)amino]-pyrimidin-2-yl]-2-thienyl]amino]formate], the Ki was in the range of 0.1 to 0.5 µM.
Take `CN1CCN(c2cc(Nc3cc(C4CC4)[nH]n3)nc(-c3ccc(S(N)(=O)=O)s3)n2)CC1` [Compound 325, 5-[4-[(5-cyclopropyl-1H-pyrazol-3-yl)amino]-6-(4-methylpiperazin-1-yl)-pyrimidin-2-yl]thiophene-2-sulfonamide]: the inhibition constant Ki was 0.1 to 0.5 µM.
For `Cc1cnc(-c2ccc(C(O)CO)s2)nc1Nc1cc(C2CC2)[nH]n1` (centres unmarked) [Compound 326, 1-[5-[4-[(5-cyclopropyl-1H-pyrazol-3-yl)amino]-5-methyl-pyrimidin-2-yl]-2-thienyl]ethane-1,2-diol], the inhibition constant Ki lay in the range of 0.01 to 0.05 µM.
`OCC(O)c1ccc(-c2ncc(Cl)c(Nc3cc(C4CC4)[nH]n3)n2)s1` (centres unmarked) [Compound 327, 1-[5-[5-chloro-4-[(5-cyclopropyl-1H-pyrazol-3-yl)amino]-pyrimidin-2-yl]-2-thienyl]ethane-1,2-diol]: the Ki lay in the range of 0.01 to 0.05 µM.
Same read-out and setting: then `NC(=O)c1ccc(-c2ncc(Cl)c(Nc3cc(C4CC4)[nH]n3)n2)s1` [compound 131, 5-(5-Chloro-4-(5-cyclopropyl-1H-pyrazol-3-ylamino)pyrimidin-2-yl)thiophene-2-carboxamide], with 0.001 to 0.01 µM.

What is called Ki is a measure of affinity in units of concentration, obtained from inhibition or displacement.

Source of the values: patent US20110053916A1 (Vertex Pharmaceuticals Incorporated, priority 2009, published 2011).
